Like-named read-outs stand apart in the source and are kept apart here. Bridge positions count the residues as written; N and C are the ends. Ends that are not written are not given here. I, II: the chains in the order shown.
Legend:
[1] = tested on: Panc-1 cells; assay: Effect of forward transfection with mTOR siRNA on chemosensitivity of Panc-1 cells to GEM-TCA; format: cell-based, human; conditions: mTOR-siRNA 10 nM and 20 nM; GEM-TCA 12.3 nM to 1 μM; 72 h; vs non-targeting siRNA
Experimental: FIG. 9. Effect of forward transfection with mTORsiRNA on chemosensitivity of Panc-1 cells to […] 5×10^3 Panc-1 cells were seeded on the wells of 96-well plate in 100 ul of DMEM/10% FBS. The next day cells were transfected with siRNA/Lipofectamine 2000 complexes accordingly to the manufactures' recommendations. In 5-6 h. medium was changed. The next day various concentrations of […] were applied to the transfected cells. At 72 h post chemical exposure cytotoxicity was assessed with Cell Titer-Glo Luminescent cell viability assay (Promega). Values derived from untreated cells (Blank) were set as 100%. All values represent the mean of ±S.D. of four replicates for each dilution. * different from cells transfected with control, not-targeting siRNA (p<0.05, Student's t test)
To realize the original hypothesis that the oncogenic gene target knockdown may induce a chemosensitivity of Panc-1 cell toward to […], the experiment was conducted with following procedures. 5×10^3 Panc-1 cells were seeded on the wells of 96-well plate in 100 ul of DMEM/10% FBS. The next day cells were transfected with siRNA/Lipofectamine 2000 complexes accordingly to the manufactures' recommendations. In 5-6 h. medium was changed. […] At 72 h post chemical exposure cytotoxicity was assessed with Cell Titer-Glo Luminescent cell viability assay (Promega). […]

[2] = tested on: Panc-1 cells; assay: Effect of TGF-β1siRNA and mTORsiRNA on chemosensitivity of Panc-1 cells to low dose GEM-TCA; format: cell-based, human; conditions: 48 h; for maximum cell killing: siRNA 30 nM plus GEM-TCA up to 1 μM; for sensitization of Panc-1 cells to GEM-TCA: siRNA 30 nM
Experimental: FIG. 10. Effect of forward transfection with TGF-β1siRNA and mTORsiRNA chemosensitivity of Panc-1 cells to […] The next day, the medium was supplemented with 3.9 nM-1000 nM […] diluted in the same medium. At 48 h post chemical exposure cytotoxicity was assessed with Cell Titer-Glo Luminescent cell viability assay (Promega). Values derived from untreated cells (Blank) were set as 100%. All values represent the mean of ±S.D. of four replicates for each dilution. Paired sample two-tailed Student's t-test was used to determine significance.
. At 48 h post chemical exposure cytotoxicity was assessed with Cell Titer-Glo Luminescent cell viability assay (Promega). Values derived from untreated cells (Blank) were set as 100%. All values represent the mean of ±S.D. of four replicates for each dilution. Paired sample two-tailed Student's t-test was used to determine significance. The TGF-β1siRNA was previously identified and validated with multiple in vitro and in vivo assays: […]

[3] = tested on: mTOR; assay: Selection of potent siRNA targeting mTOR, transfection and qRT-PCR, MDA-MB-231; format: cell-based; conditions: human MDA-MB-231 cells, qRT-PCR
From the text: (§1) FIG. 3. Selection of potent siRNA targeting mTOR. (A) The lower panel illustrates selection of eight 25 mer siRNA duplexes with control siRNA were transfected into human MDA-MB-231 cells and mouse CT26 cells. 24 hr later, mRNA was collected and subject to Q-RT-PCR with the standard control gene target Rigs15.
(§2) For mTOR siRNA selection, we first use in silico screening selected 8 siRNA sequences for siRNA oligo synthesis. And then we transfected these siRNAs into human MDA-MB-231 cells and mouse CT26 cells. Twenty-four hours later, the total mRNA collected and subjected to qRT-PCR analysis with the standard control gene target Rigs15. From FIG. 3 we can see that the potent siRNA duplexes targeting mTOR (both human and mouse mRNAs) was selected.
(§3) We have identified potent mTOR specific siRNA through cell culture studies with human breast cancer cell line MDA-MB-231 and mouse CT26 cells, followed by qRT-PCR analyses: mTOR-siRNA: […]

[4] = tested on: mTOR; assay: Selection of potent siRNA targeting mTOR, transfection and qRT-PCR, CT26; format: cell-based; conditions: mouse CT26 cells, qRT-PCR
From the text: as §1, §2, §3

[5] = tested on: miR-132; assay: Knockdown of miR-132 by antagomir-132 nanoparticles in mouse eyes; format: in vivo; conditions: QPCR
Experimental: FIG. 4. Knockdown of miR-132 by antagomir-132 nanoparticles in mouse eyes. […] One way ANOVA with Bonferroni's post hoc test was used to calculate the level of significance. P≤0.05 (*). Six corneas were collected and pooled for analysis by QPCR or WB. (B) Antagomir-132 and scrambled sequences were injected in HSV infected mice subconjunctively and the quantification of RasGAP mRNA from corneas isolated from different groups was carried out (n=6 mice/group). The level of significance was determined by student's t test (unpaired). ***P≤0.001.
One way ANOVA with Bonferroni's post hoc test was used to calculate the level of significance. P≤0.05 (*). Six corneas were collected and pooled for analysis by QPCR or WB. (B) Antagomir-132 and scrambled sequences were injected in HSV infected mice subconjunctively and the quantification of RasGAP mRNA from corneas isolated from different groups was carried out (n=6 mice/group). The level of significance was determined by student's t test (unpaired). ***P≤0.001 (FIG. 4).

[6] = -NH2 of Gemcitabine; cited from earlier work
[7] = cited from earlier work
[8] = tested on: LX-1, CALU-6, NCI-H460, NCI-H520 human lung xenografts; conditions: cited from earlier work
[9] = tested on: Lewis lung murine xenograft; conditions: cited from earlier work
[10] = tested on: Panc-1 cells; assay: Dosage-dependent cytotoxicities of Gemcitabine and GEM-HKP conjugate, Cell Titer-Glo; format: cell-based, human; conditions: Panc-1, 72 hrs post treatment
Experimental: FIG. 21. Dosage-Dependent Cytotoxicities of Gemcitabine and GEM-HKP conjugate in the Panc-1 cell culture, at 72 hrs post treatments After exposures of the Panc-1 cells to Gemcitabine only, GEM-HKP conjugate, the cytotoxicities of each treatment was assessed with a “Cell Titer-Glo Luminescent cell viability assay” (Promega). Values derived from untreated cells (Blank) were set as 100%. All values represent the mean of ±S.D. of four replicates for each dilution. In this study, the HKP concentration at each point equals to its concentration in the Gem/HKP.

## mTOR-siRNA: 25mer siRNA duplex specific to mTOR mRNA; sense 5′-r(GGUCUGGUGCCUGGUCUGAUGAUGU)-3′ in b114 (sense CACUACAAAGAACUGGAGUUCCAGA; antisense UCUGGAACUCCAGUUCUUUGUAGUG; further chemistry not given here)
[1]
  tumor cell killing by GEM-TCA after siRNA transfection: significantly improved
[2]
  maximum cell killing: 60%
[2]; GEM-TCA 3.9 nM
  sensitization of Panc-1 cells to GEM-TCA: significantly sensitize
[2]; GEM-TCA 15.6 nM
  sensitization of Panc-1 cells to GEM-TCA: sensitization effect was disappeared
[3]
  mTOR silencing potency: potent
[4]
  mTOR silencing potency: potent

## Antagomir-132: modified RNA oligo targeting miR-132 (accguggcuuucgauuguuacu), packaged with HKP into nanoparticles (antisense ACCGUGGCUUUCGAUUGUUACU; chemically modified, pattern not given here, packaged with HKP into nanoparticles)
[5]
  miR-132 knockdown in the corneas: peak miR-132 knockdown

## Nc1ccn([C@@H]2O[C@H](CO)[C@@H](O)C2(F)F)c(=O)n1 [Gemcitabine, 2′,2′-difluorodeoxycytidine]
[6]
  pKa: ~2.8
[7]
  activity with cisplatin in vitro: dose-dependent synergistic activity
[8]; LX-1 and CALU-6 human lung xenografts
  activity in combination with cisplatin: showed activity
[8]; NCI-H460 or NCI-H520 xenografts
  activity in combination with cisplatin: minimal activity
[9]
  interaction with cisplatin: synergistic

## TGF-β1siRNA: siRNA duplex to TGF-β1; sense 5′-r(CCUCAAUUCAGUCUCUCAUCUGCAA)-3′ in b118 (sense CCCAAGGGCUACCAUGCCAACUUCU; antisense AGAAGUUGGCAUGGUAGCCCUUGGG; chemistry not given here)
[2]
  maximum cell killing: 60%
[2]; GEM-TCA 3.9 nM
  sensitization of Panc-1 cells to GEM-TCA: significantly sensitize
[2]; GEM-TCA 62.5 nM
  sensitization of Panc-1 cells to GEM-TCA: sensitization effect was still significant

## I: KHHHKHHHKHHHKHHHKKKK-NH2 / II: KHHHKHHHKHHHKHHHK / III: KHHHKHHHKHHHKHHHK / IV: KHHHKHHHKHHHKHHHK (amide I:18-IV:C, I:19-III:C, I:20-II:C) [HKP]
[10]
  cytotoxicity: no cytotoxicity

Source: patent US20200108089A1, “Gemcitabine Derivatives for Cancer Therapy” (Suzhou Sirnaomics Biopharmaceuticals Co., Ltd., priority 2017, published 2020)
